Test results reported in patent publication US8802853B2, “Arylalkenyl and arylalkynyl substituted imidazoquinolines” (3M Innovative Properties Company, priority 2003, dated 2014).
Structures can show the parent of a compound that is named as a salt.

With CCc1nc2c(N)nc3ccccc3c2n1CC#Cc1cccnc1 (as salt: hydroiodid) [Example 1, 2-Ethyl-1-[3-(pyridin-3-yl)-2-propynyl]-1H-imidazo[4,5-c]quinolin-4-amine] the melting point was 249 to 251 °C (dec.).

For CCc1nc2c(N)nc3ccccc3c2n1CC#Cc1cccs1 (as salt: hydroiodid) [Example 2, 2-Ethyl-1-[3-(thien-2-yl)-2-propynyl]-1H-imidazo[4,5-c]quinolin-4-amine], the melting point was 185 to 205 °C.

With CCc1nc2c(N)nc3ccccc3c2n1CC#Cc1ccccc1 (as salt: hydroiodid) [Example 4, 2-Ethyl-1-(3-phenyl-2-propynyl)-1H-imidazo[4,5-c]quinolin-4-amine] the melting point was 200 to 212 °C (dec.).

With CCc1nc2c(N)nc3ccccc3c2n1CC#Cc1cnccn1 (as salt: hydroiodid) [Example 5, 2-Ethyl-1-[3-(pyrazin-2-yl)-2-propynyl]-1H-imidazo[4,5-c]quinolin-4-amine] the melting point was 180 to 225 °C (dec.).

In the case of CCc1nc2c(N)nc3ccccc3c2n1CCCC#Cc1ccc(OC)cc1 (as salt: hydroiodid) [Example 14, 2-Ethyl-1-[5-(4-methoxyphenyl)-4-pentynyl]-1H-imidazo[4,5-c]quinolin-4-amine], the melting point is reported as 230 °C.

With CCOC(=O)c1ccc(C#CCn2c(CC)nc3c(N)nc4ccccc4c32)cc1 [Example 6, Ethyl 4-[3-(4-Amino-2-ethyl-1H-imidazo[4,5-c]quinolin-1-yl)-1-propynyl]benzoate] the melting point was 221 to 222 °C (dec.).

Work on CCc1nc2c(N)nc3ccccc3c2n1CC#Cc1ccc(OC)cc1 [Example 7, 2-Ethyl-1-[3-(4-methoxyphenyl)-2-propynyl]-1H-imidazo[4,5-c]quinolin-4-amine] yielded a melting point of 179 to 181 °C.

CCc1nc2c(N)nc3ccccc3c2n1CC#Cc1cccc(C(F)(F)F)c1 [Example 8, 2-Ethyl-1-[3-(3-trifluoromethylphenyl)-2-propynyl]-1H-imidazo[4,5-c]quinolin-4-amine] showed a melting point of 202.5 to 203.5 °C.

For CCc1nc2c(N)nc3ccccc3c2n1CC#Cc1ccccc1C(F)(F)F [Example 9, 2-Ethyl-1-[3-(2-trifluoromethylphenyl)-2-propynyl]-1H-imidazo[4,5-c]quinolin-4-amine], the melting point was 234 to 235 °C (dec.).

In the case of CCc1nc2c(N)nc3ccccc3c2n1CC#Cc1ccc([N+](=O)[O-])cc1 [Example 10, 2-Ethyl-1-[3-(4-nitrophenyl)-2-propynyl]-1H-imidazo[4,5-c]quinolin-4-amine], the melting point is reported as 190 to 206 °C.

With CCc1nc2c(N)nc3ccccc3c2n1CC#Cc1cccc([N+](=O)[O-])c1 [Example 11, 2-Ethyl-1-[3-(3-nitrophenyl)-2-propynyl]-1H-imidazo[4,5-c]quinolin-4-amine] the melting point was 224 to 243 °C.

For CCc1nc2c(N)nc3ccccc3c2n1CCCC#Cc1cccs1 [Example 12, 2-Ethyl-1-[5-(thien-2-yl)-4-pentynyl]-1H-imidazo[4,5-c]quinolin-4-amine], the melting point was 175 to 190 °C (dec.).

Compound CCc1nc2c(N)nc3ccccc3c2n1CCCC#Cc1cccnc1 [Example 13] has a melting point of 188 to 192 °C.

CCc1nc2c(N)nc3ccccc3c2n1CCCC#Cc1ccccc1 [Example 15, 2-Ethyl-1-(5-phenyl-4-pentynyl)-1H-imidazo[4,5-c]quinolin-4-amine] gave a melting point of 199 to 202 °C.

CCc1nc2c(N)nc3ccccc3c2n1CCCC#Cc1cccc(C(F)(F)F)c1 [Example 16, 2-Ethyl-1-[5-(3-trifluoromethylphenyl)-4-pentynyl]-1H-imidazo[4,5-c]quinolin-4-amine] showed a melting point of 178 to 181 °C.

With CCc1nc2c(N)nc3ccccc3c2n1CCC/C=C/c1cccnc1 [Example 17, (E)-2-Ethyl-1-[5-(pyridin-3-yl)-4-pentenyl]-1H-imidazo[4,5-c]quinolin-4-amine] the melting point was 188 to 190 °C.

With CCc1nc2c(N)nc3ccccc3c2n1CCC/C=C/c1ccc(OC)cc1 [Example 18, (E)-2-Ethyl-1-[5-(4-methoxyphenyl)-4-pentenyl]-1H-imidazo[4,5-c]quinolin-4-amine] the melting point was 179 to 180 °C.
